Reference: patent US20070129426A1, “Therapeutic drugs for arthritis” (Shanghai Ambrosia Pharmaceutical Co., Ltd., priority 2003, published 2007)

Key:
[1] = tested on: adjuvant-induced arthritis of rats; experiment: Adjuvant-induced arthritis of rats; assay type: in vivo, Male Wistar rats
Method: Experimental animal: Male Wistar rats. Body weights were about 150 g.
Method of administration: intraperitoneal injection. The dose of wedelolactone was 0.25 mg/kg or 12.5 mg/kg, prepared in 0.5% CMC. The dose of methotrexate (MTX) is 0.2 mg/kg.
Method of experiment: The animals were divided randomly into 4 groups based on their body weights. They were adapted for 3 days before experiments. The left hind planta of the rats were injected subcutaneously with 0.1 ml CFA emulsion to induce inflammation. On the Day 10, after the administration of the adjuvant, the rats were injected intraperitoneally with 5 ml/kg test compound wedelolactone for 19 continuous days. On and after the day of administration of the adjuvant, the change of thickness of the four rat paws was measured daily using a vernier caliper, and the volume of the back paw were measured using a Plethysmometer. The data from day 5, 10, 15, and 19 after administration were used for statistic analyses.

[2] = tested on: acute inflammation of mice ear caused by dimethylbenzene; experiment: Mice ear inflammation caused by dimethylbenzene; assay type: in vivo, Kunming mice; conditions: 25 mg/kg i.p., 4 days; 2 h after dimethylbenzene; n=10
Method: Experimental animal: Kunming mice, body weight 18-22 g.
Method of administration: intraperitoneal injection. The doses of wedelolactone were 12.5 mg/kg and 25 mg/kg, respectively; the negative control used 0.5% CMC; the positive control used ibuprofen (25 mg/kg).
Method of experiment: The animals were divided randomly into 4 groups based on their body weights, 10 mice each group. The mice were administered with the test compound for 4 continuous days. On Day 4, both sides of the right ears of the mice were daubed evenly with 50 μl dimethylbenzene 2 hours after the administration. The left ears were not treated. The mice were left for 2 hours and then sacrificed by cervical dislocation. The ear specimens were obtained by punching both ears with a 8 mm hole-puncher. The specimens were weighed and the differences between the left and the right ears were used to evaluate the effect of the compound on the inflammation.

[3] = tested on: rat toes edema caused by carrageenan; experiment: Rat toes edema caused by carrageenan; assay type: in vivo, Male Wistar rats; conditions: 25 mg/kg i.p., 7 days
Method: Experimental animal: Male Wistar rats. Body weights are about 200 g.
Method of administration: intraperitoneal injection. The dose of compound 1, 2, or 3 is 12 mg/kg, respectively. The negative control used 0.5% CMC; the positive control used ibuprofen, with a dose of 25 mg/kg.
Method of experiment: The animals were divided randomly into […] based on their body weights, […]. The 4 groups were negative control group, positive control group, compound 1 group, compound 2 group, and compound 3 group. The animals were administered daily for 7 continuous days. On Day 7, the aponeurosis of right hind toes were injected with 0.1 ml of 1% carrageenan 30 minutes after the administration. The edema of the toes at different time points after induction of the inflammation was then measured.

[4] = 0.2 mg/kg i.p., day 5 after administration
[5] = 0.2 mg/kg i.p., day 5 after administration, adjuvant-injected paw
[6] = 0.2 mg/kg i.p., day 10 after administration
[7] = 0.2 mg/kg i.p., day 10 after administration, adjuvant-injected paw
[8] = 0.2 mg/kg i.p., day 15 after administration
[9] = 0.2 mg/kg i.p., day 15 after administration, adjuvant-injected paw
[10] = 0.2 mg/kg i.p., day 19 after administration
[11] = 0.2 mg/kg i.p., day 19 after administration, adjuvant-injected paw

Question: How did the “Left front paw thickness, Day 5” value [1, 4] turn out when `CN(Cc1cnc2nc(N)nc(N)c2n1)c1ccc(C(=O)N[C@@H](CCC(=O)O)C(=O)O)cc1` [MTX, methotrexate, reference compound] was run?
Answer: 4.14 ± 0.14 mm

Question: What about the “Right front paw thickness, Day 5” value [1, 4] of the same compound?
Answer: 4.00 ± 0.10 mm

Question: And the “Right hind paw thickness, Day 5” value [1, 4]?
Answer: 4.89 ± 0.23 mm

Question: What about the “Right hind paw volume, Day 5” value [1, 4] of the same compound?
Answer: 1.09 ± 0.07 mL

Question: What about the “Left hind paw thickness, Day 5” value [1, 5] of the same compound?
Answer: 6.96 ± 1.97 mm

Question: What about the “Left hind paw volume, Day 5” value [1, 5] of the same compound?
Answer: 1.68 ± 0.32 mL

Question: And the “Left front paw thickness, Day 10” value [1, 6]?
Answer: 3.96 ± 0.10 mm

Question: What about the “Right front paw thickness, Day 10” value [1, 6] of the same compound?
Answer: 3.84 ± 0.10 mm

Question: And the “Right hind paw thickness, Day 10” value [1, 6]?
Answer: 4.87 ± 0.18 mm

Question: And the “Right hind paw volume, Day 10” value [1, 6]?
Answer: 1.00 ± 0.10 mL

Question: What about the “Left hind paw thickness, Day 10” value [1, 7] of the same compound?
Answer: 7.44 ± 1.42 mm

Question: What about the “Left hind paw volume, Day 10” value [1, 7] of the same compound?
Answer: 1.73 ± 0.23 mL

Question: And the “Left front paw thickness, Day 15” value [1, 8]?
Answer: 4.04 ± 0.10 mm

Question: And the “Right front paw thickness, Day 15” value [1, 8]?
Answer: 4.07 ± 0.13 mm

Question: And the “Right hind paw thickness, Day 15” value [1, 8]?
Answer: 5.04 ± 0.28 mm

Question: And the “Right hind paw volume, Day 15” value [1, 8]?
Answer: 1.17 ± 0.11 mL

Question: And the “Left hind paw thickness, Day 15” value [1, 9]?
Answer: 7.86 ± 1.36 mm

Question: And the “Left hind paw volume, Day 15” value [1, 9]?
Answer: 1.93 ± 0.34 mL

Question: What about the “Left front paw thickness, Day 19” value [1, 10] of the same compound?
Answer: 4.09 ± 0.11 mm

Question: And the “Right front paw thickness, Day 19” value [1, 10]?
Answer: 4.00 ± 0.12 mm

Question: What about the “Right hind paw thickness, Day 19” value [1, 10] of the same compound?
Answer: 4.90 ± 0.08 mm

Question: What about the “Right hind paw volume, Day 19” value [1, 10] of the same compound?
Answer: 1.19 ± 0.09 mL

Question: And the “Left hind paw thickness, Day 19” value [1, 11]?
Answer: 7.51 ± 1.40 mm

Question: What about the “Left hind paw volume, Day 19” value [1, 11] of the same compound?
Answer: 1.84 ± 0.26 mL

Question: What about the “Primary inflammation of the left foot and secondary inflammation of the right foot (FIG. 2)” value ([1]; treated with MTX) of the same compound?
Answer: alleviated

Question: What does the source list for `CC(C)Cc1ccc(C(C)C(=O)O)cc1` (stereo not shown) [ibuprofen]?
Answer: Difference (mg) between left and right ear [2]: 11.4 ± 3.6 mg; Edema index (ml) after induction of the inflammation, 1 h ([3]; 1 h): 0.31 ± 0.06 mL; Edema index (ml) after induction of the inflammation, 2 h ([3]; 2 h): 0.38 ± 0.10 mL; Edema index (ml) after induction of the inflammation, 4 h ([3]; 4 h): 0.42 ± 0.11 mL; Edema index (ml) after induction of the inflammation, 6 h ([3]; 6 h): 0.39 ± 0.06 mL; Edema index (ml) after induction of the inflammation, 24 h ([3]; 24 h): 0.37 ± 0.07 mL
